Assay results: article PMC3687523 (Biochemical pharmacology, 2013)

Key:
rat brain CYP2D [1] = test system: rat brain CYP2D
rat brain CYP2D [2] = details: 20 μg i.c.v. propranolol
[3] = 20 μg i.c.v. propranolol, 30 mg/kg s.c. codeine
[4] = 30 min after 30 mg/kg s.c. codeine

In the case of CC(C)NCC(O)COc1cccc2ccccc12 (centres unmarked) [propranolol], the “percentage of maximal analgesic effect (%MPE) after codeine, compared to vehicle pretreatment” value (rat brain CYP2D [1]; 20 μg i.c.v. propranolol 24 h before 30 mg/kg s.c. codeine, at 15, 20, 30 and 40 min) is reported as “significantly lower”, the “area under the analgesia-time curve (AUC) 0-30 min after codeine, compared to vehicle pretreatment” value (rat brain CYP2D [1]; [3]) is reported as “significantly lower” and the “area under the analgesia-time curve (AUC) 60-120 min after codeine, compared to vehicle pretreatment” value (rat brain CYP2D [1]; [3]) is reported as “Neither inhibitor resulted in lower AUC”. For the same compound, the “AUC of analgesia after morphine, compared to vehicle pretreatment” value (rat brain CYP2D [1]; 40 μg i.c.v. propranolol, 5 mg/kg s.c. morphine, all time periods) was “did not result in significantly different”, the “%MPE after morphine, compared to vehicle pretreatment” value (rat brain CYP2D [1]; 40 μg i.c.v. propranolol, 5 mg/kg s.c. morphine, all time points) was “did not result in significantly different %MPE” and the “brain morphine concentration, compared to vehicle-pretreated rats” value (rat brain CYP2D [2]; [4]) was “significantly lower”. For the same compound, the “plasma morphine concentration, compared to vehicle-pretreated rats” value (rat brain CYP2D [2]; [4]) was “equal” and the “brain morphine concentrations, propranolol- vs vehicle-pretreated rats” value (rat brain CYP2D [2]; at both 60 and 90 min after 30 mg/kg s.c. codeine) was “no significant difference”.
